ChEMBL document CHEMBL1201862, “PubChem BioAssay data set” (2004)
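Cultured in 96-well plates, cells were exposed to test compound for 48 hours across five concentrations. At the GI50, growth is halved.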 Active and inactive are the calls of the source. Cut-off read from the data, not from the text of the source: active = GI50 up to about 1.1 µM and inactive = higher.

How the values were obtained:
Test in all cases: NCI anticancer screen, dose series, 48 h
[1] = system: HOP-92
[2] = system: HT-29
[3] = system: CCRF-CEM
[4] = system: UO-31
[5] = system: NCI-H226
[6] = system: SF-539
[7] = system: A498
[8] = system: LOX IMVI
[9] = system: SF-295
[10] = system: OVCAR-8
[11] = system: COLO 205
[12] = system: MCF7
[13] = system: RXF 393
[14] = system: SF-268
[15] = system: SW-620
[16] = system: KM12
[17] = system: IGROV-1
[18] = system: TK-10
[19] = system: T47D
[20] = system: SR

SMILES | GI50 [1] | GI50 [2] | GI50 [3] | GI50 [4] | GI50 [5] | GI50 [6] | GI50 [7] | GI50 [8] | GI50 [9] | GI50 [10] | GI50 [11] | GI50 [12] | GI50 [13] | GI50 [14] | GI50 [15] | GI50 [16] | GI50 [17] | GI50 [18] | GI50 [19] | GI50 [20]
CC1C(=O)OC2CC[N+]3(CC(=O)c4ccc(Br)cc4)CC=C(COC(=O)C(C)(O)C1(C)O)C23 (configuration not stated) | > 299 µM (inactive) | > 375 µM (inactive) | > 375 µM (inactive) | > 375 µM (inactive) | > 375 µM (inactive) | > 375 µM (inactive) | > 375 µM (inactive) | > 375 µM (inactive) | > 375 µM (inactive) | 37.5 µM (inactive) | > 375 µM (inactive) | > 375 µM (inactive) | > 375 µM (inactive) | > 375 µM (inactive) | > 375 µM (inactive) | > 375 µM (inactive) | > 375 µM (inactive) | – | – | –
CC(=O)N[C@@H](Cc1ccc(O)cn1)C(=O)NCc1ccc(Cl)cc1 | 94.4 µM (inactive) | > 100 µM (inactive) | 31.5 µM (inactive) | > 100 µM (inactive) | > 100 µM (inactive) | > 100 µM (inactive) | > 100 µM (inactive) | > 100 µM (inactive) | > 100 µM (inactive) | > 100 µM (inactive) | > 100 µM (inactive) | > 100 µM (inactive) | > 100 µM (inactive) | – | > 100 µM (inactive) | > 100 µM (inactive) | > 100 µM (inactive) | > 100 µM (inactive) | 94 µM (inactive) | –
CO[C@H](c1ccccc1)[C@H](O)[C@](O)(c1ccccc1)P(=O)(OC)OC | > 100 µM (inactive) | > 100 µM (inactive) | > 100 µM (inactive) | > 100 µM (inactive) | > 100 µM (inactive) | > 100 µM (inactive) | > 100 µM (inactive) | > 100 µM (inactive) | > 100 µM (inactive) | > 100 µM (inactive) | > 100 µM (inactive) | – | > 100 µM (inactive) | > 100 µM (inactive) | > 100 µM (inactive) | > 100 µM (inactive) | > 100 µM (inactive) | > 100 µM (inactive) | > 100 µM (inactive) | > 100 µM (inactive)
COC(=O)c1nn(C(=N)c2ccc(Cl)cc2)c2c1CCC2 | > 100 µM (inactive) | > 100 µM (inactive) | > 100 µM (inactive) | > 100 µM (inactive) | > 100 µM (inactive) | > 100 µM (inactive) | > 100 µM (inactive) | > 100 µM (inactive) | > 100 µM (inactive) | > 100 µM (inactive) | > 100 µM (inactive) | – | > 100 µM (inactive) | > 100 µM (inactive) | > 100 µM (inactive) | > 100 µM (inactive) | > 100 µM (inactive) | > 100 µM (inactive) | – | 14.7 µM (inactive)
S=C(S)NCC1CCC(CNC(=S)S)CC1 (configuration not stated) | – | 17.7 µM (inactive) | 10.7 µM (inactive) | 30.9 µM (inactive) | – | 38.5 µM (inactive) | > 100 µM (inactive) | 18.8 µM (inactive) | > 100 µM (inactive) | 20.9 µM (inactive) | 42 µM (inactive) | 17.9 µM (inactive) | 20 µM (inactive) | 39.2 µM (inactive) | 47.5 µM (inactive) | 19.7 µM (inactive) | 18.3 µM (inactive) | 22.6 µM (inactive) | 16.3 µM (inactive) | –
CC(C)(C)NC(=O)N1N=C(c2ccccc2)C1c1ccccc1 (configuration not stated) | 22.3 µM (inactive) | 18 µM (inactive) | 22.6 µM (inactive) | 18.2 µM (inactive) | 48.4 µM (inactive) | 22.1 µM (inactive) | > 100 µM (inactive) | 35.7 µM (inactive) | 35.6 µM (inactive) | 40.2 µM (inactive) | 35.7 µM (inactive) | 41.7 µM (inactive) | 14 µM (inactive) | 66.5 µM (inactive) | 31.1 µM (inactive) | 47.6 µM (inactive) | 59.8 µM (inactive) | 26 µM (inactive) | 42.7 µM (inactive) | –
Cn1ccnc1CC(C)(O)c1ccccc1 (configuration not stated) | > 100 µM (inactive) | > 100 µM (inactive) | – | > 100 µM (inactive) | > 100 µM (inactive) | > 100 µM (inactive) | > 100 µM (inactive) | > 100 µM (inactive) | > 100 µM (inactive) | > 100 µM (inactive) | > 100 µM (inactive) | > 100 µM (inactive) | > 100 µM (inactive) | > 100 µM (inactive) | > 100 µM (inactive) | > 100 µM (inactive) | > 100 µM (inactive) | > 100 µM (inactive) | – | > 100 µM (inactive)
CCCCn1c(CSc2ccc(Cl)cc2)c(C(=O)OCC)c2cc(OC)c(Br)cc21 | – | – | > 100 µM (inactive) | > 100 µM (inactive) | > 100 µM (inactive) | – | > 100 µM (inactive) | > 100 µM (inactive) | > 100 µM (inactive) | > 100 µM (inactive) | > 100 µM (inactive) | – | – | > 100 µM (inactive) | > 100 µM (inactive) | > 100 µM (inactive) | > 100 µM (inactive) | > 100 µM (inactive) | > 100 µM (inactive) | 88.7 µM (inactive)
Cn1c(=O)cc(NCc2ccc(Cl)cc2)[nH]c1=O | 19.3 µM (inactive) | > 100 µM (inactive) | – | 51.5 µM (inactive) | > 100 µM (inactive) | 32.4 µM (inactive) | > 100 µM (inactive) | > 100 µM (inactive) | 30.3 µM (inactive) | 44.4 µM (inactive) | > 100 µM (inactive) | 31.9 µM (inactive) | 68.7 µM (inactive) | 18.8 µM (inactive) | > 100 µM (inactive) | > 100 µM (inactive) | > 100 µM (inactive) | 21.5 µM (inactive) | 91.2 µM (inactive) | –
Cc1ccc(S(=O)(=O)NC(=O)NC(Cc2ccc(O)cc2)C(=O)O)cc1 (configuration not stated) | > 100 µM (inactive) | > 100 µM (inactive) | > 100 µM (inactive) | > 100 µM (inactive) | – | > 100 µM (inactive) | – | > 100 µM (inactive) | > 100 µM (inactive) | > 100 µM (inactive) | > 100 µM (inactive) | – | > 100 µM (inactive) | > 100 µM (inactive) | > 100 µM (inactive) | > 100 µM (inactive) | > 100 µM (inactive) | > 100 µM (inactive) | > 100 µM (inactive) | > 100 µM (inactive)
CC(C)(C)/C(O)=C\c1nc2ccc(C(F)(F)F)cc2[nH]c1=O | > 100 µM (inactive) | > 100 µM (inactive) | > 100 µM (inactive) | > 100 µM (inactive) | > 100 µM (inactive) | – | > 100 µM (inactive) | > 100 µM (inactive) | > 100 µM (inactive) | > 100 µM (inactive) | > 100 µM (inactive) | – | > 100 µM (inactive) | > 100 µM (inactive) | > 100 µM (inactive) | > 100 µM (inactive) | > 100 µM (inactive) | > 100 µM (inactive) | > 100 µM (inactive) | > 100 µM (inactive)
O=C1C[C@@H](c2ccccc2)O[C@@H](c2ccccc2)C1 | > 100 µM (inactive) | > 100 µM (inactive) | > 100 µM (inactive) | > 100 µM (inactive) | > 100 µM (inactive) | > 100 µM (inactive) | – | > 100 µM (inactive) | > 100 µM (inactive) | > 100 µM (inactive) | 97.5 µM (inactive) | > 100 µM (inactive) | > 100 µM (inactive) | > 100 µM (inactive) | > 100 µM (inactive) | > 100 µM (inactive) | > 100 µM (inactive) | – | > 100 µM (inactive) | –
CCOC(=O)/C(=C\NC#N)c1nc2ccccc2[nH]1 | > 100 µM (inactive) | > 100 µM (inactive) | – | 1.28 µM (inactive) | – | > 100 µM (inactive) | > 100 µM (inactive) | > 100 µM (inactive) | > 100 µM (inactive) | > 100 µM (inactive) | > 100 µM (inactive) | > 100 µM (inactive) | > 100 µM (inactive) | 72.9 µM (inactive) | > 100 µM (inactive) | > 100 µM (inactive) | 58.9 µM (inactive) | 85.5 µM (inactive) | – | 52.7 µM (inactive)
NNc1ccccc1Cl | > 100 µM (inactive) | > 100 µM (inactive) | 43.1 µM (inactive) | 89.1 µM (inactive) | > 100 µM (inactive) | > 100 µM (inactive) | > 100 µM (inactive) | > 100 µM (inactive) | 27.3 µM (inactive) | > 100 µM (inactive) | 29 µM (inactive) | > 100 µM (inactive) | > 100 µM (inactive) | > 100 µM (inactive) | > 100 µM (inactive) | > 100 µM (inactive) | > 100 µM (inactive) | > 100 µM (inactive) | 59.8 µM (inactive) | –
CCCc1c(OC)c(=O)c2c(O)cc(OC)c3c4c(OC)cc(O)c5c(=O)c(OC)c(CCC)c(c1c23)c54 | 5.69 µM (inactive) | 4.79 µM (inactive) | 1.26 µM (inactive) | 2.62 µM (inactive) | 3.46 µM (inactive) | 1.49 µM (inactive) | 10.6 µM (inactive) | 1.63 µM (inactive) | 9.62 µM (inactive) | 0.944 µM (active) | 4.35 µM (inactive) | 3.43 µM (inactive) | – | 5 µM (inactive) | 3.15 µM (inactive) | 8.57 µM (inactive) | 2.98 µM (inactive) | 44.7 µM (inactive) | – | 0.31 µM (active)
N=C(N)C(/N=N\c1ccccc1)C(N)=O (configuration not stated) | > 100 µM (inactive) | > 100 µM (inactive) | – | > 100 µM (inactive) | > 100 µM (inactive) | – | 66.5 µM (inactive) | 83 µM (inactive) | 62.8 µM (inactive) | > 100 µM (inactive) | > 100 µM (inactive) | > 100 µM (inactive) | 87.3 µM (inactive) | > 100 µM (inactive) | > 100 µM (inactive) | 59.4 µM (inactive) | > 100 µM (inactive) | 96.4 µM (inactive) | 57.7 µM (inactive) | –
